Experimental findings from patent US20040005352A1, “Biologically functionalized porous microspheres” (priority 2002, published 2004) are described below.

One assay has as its target T1, bacteriorhodopsin (BR) (Halobacterium salinarum, UniProt P02945).
T1 sequence (P02945 14-262): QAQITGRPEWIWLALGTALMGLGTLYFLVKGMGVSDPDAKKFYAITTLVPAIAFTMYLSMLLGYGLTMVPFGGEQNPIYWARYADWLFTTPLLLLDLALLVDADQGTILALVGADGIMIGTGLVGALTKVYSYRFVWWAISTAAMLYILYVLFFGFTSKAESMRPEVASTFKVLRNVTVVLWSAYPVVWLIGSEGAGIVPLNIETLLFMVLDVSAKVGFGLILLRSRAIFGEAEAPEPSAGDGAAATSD
Nature of the assay: FITC response to illumination of bacteriorhodopsin in the microsphere membrane (flow cytometry). To be noted: for Activity of BR within the microsphere (proton pumping): BR in lipid bilayer on mesoporous microspheres, illumination.

The target of the next assay is Human DAT protein (Homo sapiens, UniProt Q01959). To be noted: anticipated; [3H]DA uptake, 3 min at 34° C.
Assay [1] has as its system lipid bilayer of membrane-enclosed microspheres. It counts as biochemical. Conditions: pH 7.4.

Sequence of Human DAT protein (Q01959 whole entry): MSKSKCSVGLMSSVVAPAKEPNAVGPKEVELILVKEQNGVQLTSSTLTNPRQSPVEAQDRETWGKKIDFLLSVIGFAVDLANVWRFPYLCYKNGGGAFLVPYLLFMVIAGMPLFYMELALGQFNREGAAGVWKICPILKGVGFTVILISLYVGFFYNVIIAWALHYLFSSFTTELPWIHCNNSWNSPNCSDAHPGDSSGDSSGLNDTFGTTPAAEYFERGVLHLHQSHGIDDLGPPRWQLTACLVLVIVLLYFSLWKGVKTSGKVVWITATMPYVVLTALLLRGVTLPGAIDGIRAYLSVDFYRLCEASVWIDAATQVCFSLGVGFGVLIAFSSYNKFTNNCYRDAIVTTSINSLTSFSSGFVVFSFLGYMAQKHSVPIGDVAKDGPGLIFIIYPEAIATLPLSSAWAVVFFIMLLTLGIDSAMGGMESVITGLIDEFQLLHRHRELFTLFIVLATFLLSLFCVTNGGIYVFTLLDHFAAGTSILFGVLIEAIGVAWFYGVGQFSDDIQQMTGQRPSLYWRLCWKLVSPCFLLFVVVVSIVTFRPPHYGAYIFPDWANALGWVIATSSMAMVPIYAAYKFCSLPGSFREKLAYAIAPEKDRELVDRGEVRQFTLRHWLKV
From the text for bacteriorhodopsin (BR): The next investigation was to determine whether a integral membrane protein, bacteriorhodopsin (BR) retained its activity and effect a change on the contents of the microporous microsphere. The natural activity of bacteriorhodpsin is to increase the proton concentration (i.e. pH) upon illumination with the appropriate wavelength of light (ca 510 nm).
The microspheres were then enveloped with liposomes containing 0.1-5% reconstituted bacteriorhodpsin-containing “purple membrane” from Halobacterium salinarum, in egg phosphatidyl choline.

As for `O=[N+]([O-])[O-].O=[N+]([O-])[O-].O=[N+]([O-])[O-].[Gd+3]` [Gd(NO3)3, reference compound], the “Effect on BR” value at bacteriorhodopsin (BR) (3 μM Gd(NO3)3) was “inhibitor of BR”.
On to `NCCc1ccc(O)c(O)c1` [dopamine], for which the Vmax on Human DAT protein turned out to be 9.0 pmol/10^5 cells/min.
In the case of α-hemolysin, the “Change in Mag-Fluo-4 fluorescence intensity (mean channel fluorescence)” value in assay [1] is listed as “increase in fluorescence intensity”.

B1: BR: integral membrane protein, light driven proton pump; purple membrane from Halobacterium salinarum (protein, UniProt P02945 14-262, looked up)
Bacteriorhodopsin: T1 sequence (P02945 14-262)
Take B1: the “FITC intensity after several minutes of illumination” value in the assay with bacteriorhodopsin (BR) (0.1-5% BR purple membrane in egg phosphatidyl choline, white light) is “decreased”. The “Activity of BR within the microsphere (proton pumping)” value with bacteriorhodopsin (BR) is listed as “active”; in the assay with bacteriorhodopsin (BR) (listed as bacteriorhodopsin), “photo-induced proton pumping”.
